Results published in paper PMC3947597 (Bioorganic & medicinal chemistry, 2013).

System: tubulin (colchicine site)
Experiment: Inhibition of [3H]colchicine binding to tubulin
Conditions: 1.0 µM tubulin, 5.0 µM [3H]colchicine, 10 min at 37 °C

In the case of COc1ccc(/C=C\c2cc(OC)c(OC)c(OC)c2)cc1O [CA4, combretastatin A-4], the “Inhibition of colchicine binding (%) ±SD, 1 µM” value (inhibitor 1 µM) was 88±2% and the “Inhibition of colchicine binding (%) ±SD, 5 µM” value (inhibitor 5 µM) was 98±0.5%.
